For this test, the target named is T1, human PAH with the R408W mutation (A375 R408W cells) (Homo sapiens, UniProt P00439, R408W).
T1 construct: expressed in transfected cells
T1 sequence (P00439 1-452 R408W): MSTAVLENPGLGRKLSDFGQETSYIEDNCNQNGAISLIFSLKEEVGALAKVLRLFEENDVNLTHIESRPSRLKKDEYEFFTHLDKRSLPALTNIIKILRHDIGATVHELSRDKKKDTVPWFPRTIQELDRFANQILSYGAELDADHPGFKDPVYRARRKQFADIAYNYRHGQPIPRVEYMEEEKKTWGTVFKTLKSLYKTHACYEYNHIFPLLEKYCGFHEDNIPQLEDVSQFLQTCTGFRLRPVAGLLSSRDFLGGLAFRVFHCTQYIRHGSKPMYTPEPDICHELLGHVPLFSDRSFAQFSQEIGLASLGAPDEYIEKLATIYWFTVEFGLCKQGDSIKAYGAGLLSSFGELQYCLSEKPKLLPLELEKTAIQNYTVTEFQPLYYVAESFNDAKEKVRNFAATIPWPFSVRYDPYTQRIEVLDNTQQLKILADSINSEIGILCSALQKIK
Briefly: Cell Based Phenylalanine Flux Assay. As to conditions: A375 R408W cells; 24 hrs with compound, then 20 μM sepiapterin and 800 μM 13C9,15N-Phenylalanine for 4 hours; 13C-Tyrosine by LC-MS; average where tested multiple times. In a few lines: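 LC-MS quantitation of 13C-tyrosine in media gave AC50 values. Stable A375 R408W PAH cells were preincubated 24 h with compound, then fed 800 μM labelled Phe plus 20 μM sepiapterin for 4 h. Dose curves were 10-point, tested in duplicate, averaged over repeat runs.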
`COc1ccc2oc([C@H]3c4nc[nH]c4CCN3C(=O)c3nnc(-c4cnn(C)c4)o3)nc2c1` [Example 554, (R)-(4-(5-methoxybenzo[d]oxazol-2-yl)-6,7-dihydro-1H-imidazo[4,5-c]pyridin-5(4H)-yl)(5-(1-methyl-1H-pyrazol-4-yl)-1,3,4-oxadiazol-2-yl)methanone]: the AC50 was 1000 to 5000 nM.
With `COc1ccc2oc([C@@H]3c4nc[nH]c4CCN3C(=O)c3nnc(-c4ccccn4)o3)nc2c1` [Example 555, (S)-(4-(5-methoxybenzo[d]oxazol-2-yl)-6,7-dihydro-1H-imidazo[4,5-c]pyridin-5(4H)-yl)(5-(pyridin-2-yl)-1,3,4-oxadiazol-2-yl)methanone] the figure was 500 to 1000 nM; with `COc1ccc2oc([C@H]3c4nc[nH]c4CCN3C(=O)c3nnc(-c4ccccn4)o3)nc2c1` [Example 556, (R)-(4-(5-methoxybenzo[d]oxazol-2-yl)-6,7-dihydro-1H-imidazo[4,5-c]pyridin-5(4H)-yl)(5-(pyridin-2-yl)-1,3,4-oxadiazol-2-yl)methanone], 1000 to 5000 nM; with `CC(C)(O)c1nc(C2CC2)c(C(=O)N2CCc3[nH]cnc3[C@H]2c2nc3cc(F)ccc3o2)o1` [Example 557, (S)-(4-cyclopropyl-2-(2-hydroxypropan-2-yl)oxazol-5-yl)(4-(5-fluorobenzo[d]oxazol-2-yl)-6,7-dihydro-1H-imidazo[4,5-c]pyridin-5(4H)-yl)methanone], at most 500 nM.
With `CC(C)(O)c1nc(C2CC2)c(C(=O)N2CCc3[nH]cnc3[C@@H]2c2nc3cc(F)ccc3o2)o1` [Example 558, (R)-(4-cyclopropyl-2-(2-hydroxypropan-2-yl)oxazol-5-yl)(4-(5-fluorobenzo[d]oxazol-2-yl)-6,7-dihydro-1H-imidazo[4,5-c]pyridin-5(4H)-yl)methanone] the figure was 1000 to 5000 nM.
The same measure for `O=C(c1oc(-c2ccncc2)nc1C(F)F)N1CCc2[nH]cnc2[C@@H]1c1nc2cccc(F)c2o1` [Example 559, (R)-(4-(difluoromethyl)-2-(pyridin-4-yl)oxazol-5-yl)(4-(7-fluorobenzo[d]oxazol-2-yl)-6,7-dihydro-1H-imidazo[4,5-c]pyridin-5(4H)-yl)methanone]: at most 500 nM; for `O=C(c1oc(-c2ccncc2)nc1C(F)F)N1CCc2[nH]cnc2[C@H]1c1nc2cccc(F)c2o1` [Example 560, (S)-(4-(difluoromethyl)-2-(pyridin-4-yl)oxazol-5-yl)(4-(7-fluorobenzo[d]oxazol-2-yl)-6,7-dihydro-1H-imidazo[4,5-c]pyridin-5(4H)-yl)methanone]: at most 500 nM; for `Cn1nc(C(F)F)nc1C(=O)N1CCc2[nH]cnc2[C@H]1c1nc2ccccc2o1` [Example 561, (S)-(4-(benzo[d]oxazol-2-yl)-6,7-dihydro-1H-imidazo[4,5-c]pyridin-5(4H)-yl)(3-(difluoromethyl)-1-methyl-1H-1,2,4-triazol-5-yl)methanone]: 500 to 1000 nM.
On to `Cn1nc(C(F)F)nc1C(=O)N1CCc2[nH]cnc2[C@@H]1c1nc2ccccc2o1` [Example 562, (R)-(4-(benzo[d]oxazol-2-yl)-6,7-dihydro-1H-imidazo[4,5-c]pyridin-5(4H)-yl)(3-(difluoromethyl)-1-methyl-1H-1,2,4-triazol-5-yl)methanone], for which the AC50 is 1000 to 5000 nM.
With `O=C(c1ccnn1C(F)F)N1CCc2[nH]cnc2[C@H]1c1nc2ccccc2o1` [Example 563, (S)-(4-(benzo[d]oxazol-2-yl)-6,7-dihydro-1H-imidazo[4,5-c]pyridin-5(4H)-yl)(1-(difluoromethyl)-1H-pyrazol-5-yl)methanone] the figure was at most 500 nM; with `O=C(c1ccnn1C(F)F)N1CCc2[nH]cnc2[C@@H]1c1nc2ccccc2o1` [Example 564, (R)-(4-(benzo[d]oxazol-2-yl)-6,7-dihydro-1H-imidazo[4,5-c]pyridin-5(4H)-yl)(1-(difluoromethyl)-1H-pyrazol-5-yl)methanone], 1000 to 5000 nM.
With `Cc1cccc2nc([C@@H]3c4nc[nH]c4CCN3C(=O)c3nnc(-c4cnn(C)c4)o3)oc12` [Example 565, (S)-(5-(1-methyl-1H-pyrazol-4-yl)-1,3,4-oxadiazol-2-yl)(4-(7-methylbenzo[d]oxazol-2-yl)-6,7-dihydro-1H-imidazo[4,5-c]pyridin-5(4H)-yl)methanone] the figure was 500 to 1000 nM; with `Cc1cccc2nc([C@H]3c4nc[nH]c4CCN3C(=O)c3nnc(-c4cnn(C)c4)o3)oc12` [Example 566, (R)-(5-(1-methyl-1H-pyrazol-4-yl)-1,3,4-oxadiazol-2-yl)(4-(7-methylbenzo[d]oxazol-2-yl)-6,7-dihydro-1H-imidazo[4,5-c]pyridin-5(4H)-yl)methanone], 1000 to 5000 nM; with `Cc1cccc2nc([C@@H]3c4nc[nH]c4CCN3C(=O)c3nnc(-c4ccccn4)o3)oc12` [Example 567, (S)-(4-(7-methylbenzo[d]oxazol-2-yl)-6,7-dihydro-1H-imidazo[4,5-c]pyridin-5(4H)-yl)(5-(pyridin-2-yl)-1,3,4-oxadiazol-2-yl)methanone], at most 500 nM.
The same measure for `Cc1cccc2nc([C@H]3c4nc[nH]c4CCN3C(=O)c3nnc(-c4ccccn4)o3)oc12` [Example 568, (R)-(4-(7-methylbenzo[d]oxazol-2-yl)-6,7-dihydro-1H-imidazo[4,5-c]pyridin-5(4H)-yl)(5-(pyridin-2-yl)-1,3,4-oxadiazol-2-yl)methanone]: 1000 to 5000 nM; for `Cc1ncoc1C(=O)N1CCc2[nH]cnc2[C@H]1c1nc2cccc(F)c2o1` [Example 569, (S)-(4-(7-fluorobenzo[d]oxazol-2-yl)-6,7-dihydro-1H-imidazo[4,5-c]pyridin-5(4H)-yl)(4-methyloxazol-5-yl)methanone]: at most 500 nM.
As to `Cc1ncoc1C(=O)N1CCc2[nH]cnc2[C@@H]1c1nc2cccc(F)c2o1` [Example 570, (R)-(4-(7-fluorobenzo[d]oxazol-2-yl)-6,7-dihydro-1H-imidazo[4,5-c]pyridin-5(4H)-yl)(4-methyloxazol-5-yl)methanone], the AC50 lay in the range of 1000 to 5000 nM.
`CC(C)(O)c1nc(C(F)F)c(C(=O)N2CCc3[nH]cnc3[C@H]2c2nc3cc(Br)cc(F)c3o2)o1` [Example 571, (S)-(4-(5-bromo-7-fluorobenzo[d]oxazol-2-yl)-6,7-dihydro-1H-imidazo[4,5-c]pyridin-5(4H)-yl)(4-(difluoromethyl)-2-(2-hydroxypropan-2-yl)oxazol-5-yl)methanone]: the AC50 was at most 500 nM.
With `CC(C)(O)c1nc(C(F)F)c(C(=O)N2CCc3[nH]cnc3[C@@H]2c2nc3cc(Br)cc(F)c3o2)o1` [Example 572, (R)-(4-(5-bromo-7-fluorobenzo[d]oxazol-2-yl)-6,7-dihydro-1H-imidazo[4,5-c]pyridin-5(4H)-yl)(4-(difluoromethyl)-2-(2-hydroxypropan-2-yl)oxazol-5-yl)methanone], the AC50 was at most 500 nM.
The same measure for `O=C(c1ocnc1C(F)F)N1CCc2[nH]cnc2[C@H]1c1nc2cc(Br)cc(F)c2o1` [Example 573, (S)-(4-(5-bromo-7-fluorobenzo[d]oxazol-2-yl)-6,7-dihydro-1H-imidazo[4,5-c]pyridin-5(4H)-yl)(4-(difluoromethyl)oxazol-5-yl)methanone]: at most 500 nM; for `O=C(c1ocnc1C(F)F)N1CCc2[nH]cnc2[C@@H]1c1nc2cc(Br)cc(F)c2o1` [Example 574, (R)-(4-(5-bromo-7-fluorobenzo[d]oxazol-2-yl)-6,7-dihydro-1H-imidazo[4,5-c]pyridin-5(4H)-yl)(4-(difluoromethyl)oxazol-5-yl)methanone]: at most 500 nM.
Regarding `O=C(c1cnco1)N1CCc2[nH]cnc2[C@H]1c1nc2cc(F)cc(F)c2o1` [Example 575, (S)-(4-(5,7-difluorobenzo[d]oxazol-2-yl)-6,7-dihydro-1H-imidazo[4,5-c]pyridin-5(4H)-yl)(oxazol-5-yl)methanone], the AC50 fell in the range of 1000 to 5000 nM.
For `O=C(c1cnco1)N1CCc2[nH]cnc2[C@@H]1c1nc2cc(F)cc(F)c2o1` [Example 576, (R)-(4-(5,7-difluorobenzo[d]oxazol-2-yl)-6,7-dihydro-1H-imidazo[4,5-c]pyridin-5(4H)-yl)(oxazol-5-yl)methanone], the AC50 was in the range of 1000 to 5000 nM.
In the case of `Cn1nc(C(F)F)nc1C(=O)N1CCc2[nH]cnc2[C@H]1c1nc2cc(F)cc(F)c2o1` [Example 577, (S)-(4-(5,7-difluorobenzo[d]oxazol-2-yl)-6,7-dihydro-1H-imidazo[4,5-c]pyridin-5(4H)-yl)(3-(difluoromethyl)-1-methyl-1H-1,2,4-triazol-5-yl)methanone], the AC50 lay in the range of 500 to 1000 nM.
Turning to `Cn1nc(C(F)F)nc1C(=O)N1CCc2[nH]cnc2[C@@H]1c1nc2cc(F)cc(F)c2o1` [Example 578, (R)-(4-(5,7-difluorobenzo[d]oxazol-2-yl)-6,7-dihydro-1H-imidazo[4,5-c]pyridin-5(4H)-yl)(3-(difluoromethyl)-1-methyl-1H-1,2,4-triazol-5-yl)methanone], the AC50 was in the range of 1000 to 5000 nM.
With `O=C(c1nnc(-c2ccccn2)o1)N1CCc2[nH]cnc2[C@@H]1c1nc2cc(F)cc(F)c2o1` [Example 579, (R)-(4-(5,7-difluorobenzo[d]oxazol-2-yl)-6,7-dihydro-1H-imidazo[4,5-c]pyridin-5(4H)-yl)(5-(pyridin-2-yl)-1,3,4-oxadiazol-2-yl)methanone] the figure was at most 500 nM.

In general, AC50 refers to the midpoint of the concentration-response curve, whichever way the signal moves.

For the origin of these results see patent publication US20250171437A1 (Agios Pharmaceuticals,Inc., priority 2022, published 2025).
